# Data as given in patent US8933228B2, “Respiratory formulations and compounds for use therein” (Respivert, Ltd., priority 2010, dated 2015).
# pEC50, pIC50: −log10 of the molar value.
# Legend:
# cSrc enzyme = cSrc enzyme (Homo sapiens (Human), UniProt P12931); test: c-SRC enzyme inhibition assay (FRET, Z'-LYTE); format: biochemical; conditions: read-out: Enzyme Profile: IC50 Values cSrc
# HCK enzyme = HCK enzyme (Homo sapiens (Human), UniProt P08631); test: HCK enzyme inhibition assay (FRET, Z'-LYTE); format: biochemical; conditions: read-out: Enzyme Profile: IC50 Values HCK
# [1] = system: TNFα release in THP-1 cells; test: LPS-induced TNFα release in THP-1 cells; format: cell-based; conditions: Homo sapiens; THP-1 cells, LPS 3 μg/mL, 4 hr; read-out: THP1 (LPS) TNFα IC50
# Protocol: The inhibition of TNFα production was calculated at each concentration by comparison with vehicle control.
# [2] = system: IL-8 release in d-U937 cells; test: LPS-induced IL-8 release in d-U937 cells; format: cell-based; conditions: Homo sapiens, dU937; d-U937 cells, LPS 0.1 μg/mL, 4 hr; read-out: d-U937 (LPS) IL-8 IC50
# Method in brief: (§1)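 U937 cells made macrophage-like by 48–72 h with PMA (100 ng/mL), then stimulated with LPS (E. coli O111:B4) for 4 h. Supernatant TNFα and IL-8 measured by sandwich ELISA; inhibition versus vehicle control at each concentration, REC50 from concentration-response curve.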
# p38 MAPK γ (MAPK12) = p38 MAPK γ (MAPK12) (Homo sapiens (Human), UniProt P53778); test: Enzyme inhibition assay (FRET, Z-LYTE), p38 MAPK gamma; format: biochemical; conditions: read-out: Enzyme Profile: IC50 Values p38γ
# Method in brief: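 Recombinant phosphorylated human p38γ preincubated with compound 2 hr at RT in HEPES buffer, then reacted 1 hr with 2 μM FRET peptide and 100 μM ATP. Protease development 1 hr; phosphorylation derived from coumarin/fluorescein emission ratio.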
# p38 MAPK alpha (MAPK14) = p38 MAPK alpha (MAPK14) (Homo sapiens (Human), UniProt Q16539); test: Enzyme inhibition assay (FRET, Z-LYTE), p38 MAPK alpha via MAPKAP-K2 activation; format: biochemical; conditions: read-out: Enzyme Profile: IC50 Values p38α
# Method in brief: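 Recombinant p38 MAPKα was preincubated with compound 2 hr at RT. Its activity was measured indirectly through MAPKAP-K2 activation/phosphorylation, read by Z-LYTE FRET after 1 hr protease development. Phosphorylation was taken from the coumarin/fluorescein emission ratio.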
# [3] = system: TNFα release in d-U937 cells; test: LPS-induced TNFα release in d-U937 cells; format: cell-based; conditions: Homo sapiens, dU937, LPS 0.1 μg/mL, 4 hr, relative to 10 μg/mL BIRB796, read-out: d-U937 (LPS) TNFα REC50
# Method in brief: as §1
# [4] = system: ICAM-1 expression in BEAS2B cells; test: Poly I:C-induced ICAM-1 induction in BEAS2B cells; format: cell-based; conditions: Homo sapiens, BEAS-2B; BEAS2B cells, poly I:C 1 μg/mL, 18 hr; read-out: BEAS2B (polyIC) ICAM1 IC50
# Method in brief: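 Human bronchial epithelial BEAS2B cells pre-incubated 2 hr with test compounds at final concentrations, then transfected with poly I:C (1 μg/mL) using Oligofectamine. Cell-surface ICAM-1 quantified by cell-based ELISA with HRP-conjugated anti-rabbit IgG secondary.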
# HRV16 = test: Rhinovirus-titre assay; format: cell-based, human rhinovirus; conditions: HRV16
# [5] = system: Differentiated U937 cells; test: MTT assay: cell viability; format: cell-based, human; conditions: 1 μg/ml
# Method in brief: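 Differentiated U937 cells pre-incubated with compound either 4 hr in 5% FCS or 24 h in 10% FCS, then 1 hr MTT. Formazan dissolved in DMSO, absorbance at 550 nm. Percentage viability loss relative to 0.5% DMSO vehicle; apparent increases appear as negative percentages.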
structure (smiles),measurement,setting,value
COc1ccc(-n2nc(C(C)(C)C)cc2NC(=O)Nc2ccc(Oc3ccnc4[nH]c(=O)[nH]c34)c3ccccc23)cc1 [Example 9],pIC50,cSrc enzyme,8.15
same,pIC50,HCK enzyme,> 8.70
same,pIC50,[1],8.80
same,pIC50,[2],7.57
same,pIC50,p38 MAPK γ (MAPK12),6.92
same,pIC50,p38 MAPK alpha (MAPK14),7.68
same,pEC50,[3],8.51
same,pIC50,[4],7.62
same,inhibition at 0.04 µg/mL,"HRV16; Human rhinovirus sp., cell not marked b, test compounds 0.04 μg/mL per method (footnote b, 0.2 μg/mL), read-out: HRV titre (inhibitory %): % inhibition observed vs. HRV16 infection control",36%
same,NBEC (HRV) HRV titre Relative anti-viral activity,HRV16; at 0.04 μg/mL vs. pleconaril at 0.1 μg/mL,3.2
same,d-U937 MTT Assay 4 h,"[5]; 4 h, 5% FCS","− (− and + indicate the result is below and above the no significant effect threshold, respectively (<30% inhibition at a concentration of 1 μg/ml))"
same,d-U937 MTT Assay 24 h,"[5]; 24 h, 10% FCS","− (− and + indicate the result is below and above the no significant effect threshold, respectively (<30% inhibition at a concentration of 1 μg/ml))"
